Calls of active or inactive are those of the source. No cut-off for these calls is given here.
Assays:
[1] = test system: MG-63; assay: Induction of p53-independent p21 promoter activation (unknown origin) transfected in human MG63 cells expressing luciferase reporter gene by luciferase reporter gene assay; assay type: cell-based
[2] = test system: MG-63; assay: Induction of p53-independent p21 promoter activation (unknown origin) transfected in human MG63 cells expressing luciferase reporter gene at 0.3 uM by luciferase reporter gene assay relative to control; assay type: cell-based
[3] = test system: MG-63; assay: Increase in p21 protein expression in wild-type human MG63 cells at 0.01 to 0.3 uM by Western blotting method; assay type: functional, cell-based

COc1cccc2c1c(O)cc1oc3c(ccc4cccc(O)c43)c12
Activity [1]: Dose-dependent effect | fold change (FC) [2]: 2.5 | Activity [3]: Active
